Results from patent US4816490A, “Novel therapeutic use of a derivative of indane dione and the pharmaceutical compositions intended for this use” (priority 1987, dated 1989).

Columns and labels:
[1] = system: hyperlipidaemia induced by TRITON WR 1339; test: Hyperlipidaemia induced by TRITON WR 1339 in the Wistar rat; format: in vivo; conditions: for Dose dependence of hypolipaemiant activity: 250 and 500 mg/kg
Description: Feeding by standard Regimen UAR A04
Drinking water ad libitum
6 animals per dose in a cage in MAKROLON of 60×40 cm filled with shavings of wood.
10 mn after: administration of the test compound
6 hours after: 1st sampling of the blood at the retro-orbital sinus
Total cholesterol by the colorimetric method of RICHMOND
Cholesterol in HDL by the colorimetric method of RICHMOND after precipitation by CONCANAVALIN A
Cholesterol in LDL by the colorimetric method of RICHMOND after precipitation by CONCANAVALIN A
Total lipids by the Zollner's sulphophosphovanillic method
Triglycerids by the BUCOLO's enzymatic method.

[2] = system: female rats of Wistar strain; test: Tolerance, mortality and body weight in the rat atheroma study
Excerpt: (§1) Female rats of Wistar strain, free of specific pathogenic germs (EOPS) stemming from the breeding EVIC-CEBA
(§2) Diet of the animals: the animals were given the atheromatogenous regimen then while maintaining the same regimen, they were given for 4 days 250,000 IU/kg of vitamin D2 dissolved in olive oil (Sterogyl 15H). The compounds to be tested were given thereafter for 4 weeks immediately after the termination of the atheromatogenous regimen.
The behavior and the changes in weight of the animals were surveyed every day as well as by weekly weighing.

[3] = system: hyperlipidaemia / atheroma in Wistar rats on atheromatogenous regimen; test: Biochemical testings in rats on atheromatogenous (cholesterol-rich) diet, including atheroma risk ratios; format: in vivo, rat; conditions: 100 mg/kg; for Cholesterol in LDL, variation in comparison to controls-Diet: LDL (estimate)
Excerpt: (§3) The method utilized for the test was that, slightly altered of Aubert D. Feraud J. C., Lacaze B., Pepino., Ponak E. et Podesta M. as described in Atherosclerosis, Vol. 20 (1974), p. 263-280 (Experimental Atherogenesis in the Wistar Rat).
as §1
Mean body weight: 160-180 g at the start of the test
(§4) Diet: standard tablets UAE AO 3 enriched in cholesterol (0.5%) and in cholic acid (0.5).
15 animals per each batch and by cage in MACROLON (Safi) of 59 cm×38 cm, 5 cm filled with a litter of shavings of wood.
as §2
At the end of these studies the following tests were performed on all surviving animals.
Esterified blood cholesterol
Cholesterol in LDL (estimate)
The total score for each product was obtained by adding each individual scores and allowed the following classification
The protection against the atheromatogenous risk was evaluated using the following ratios: […]

[4] = system: atheroma / hyperlipidaemia in Wistar rats on atheromatogenous regimen; test: Overall hypolipaemiant and anti-atheromatous classification (summarized scores); format: in vivo, rat; conditions: 100 mg/kg
Excerpt: as §3, §1, §4, §2

[5] = system: atheromatous damages of the aorta, Wistar rats; test: Histopathological examination of atheroma in rats on atheromatogenous diet; format: in vivo, rat; conditions: 100 mg/kg
Excerpt: as §3, §4
The aorta, livers, hearts of the rats after sacrifice were […] with an aqueous solution of Bouin's Reagent and embedded in paraffin after washing with alcohols at increasing concentration and with toluene. The hearts were kept in blocks of paraffin for a further examination when necessary. The livers were stained using the technique of Hematein-eosin and the aorta were stained using the techniques of
orcein-light green to evidence the structural damages of the elastic strips
periodic acid, then Schiff's Reagent to locate the deposits of mucopolysaccharids […]
The intensity of the observed damages and the degree of atheromatosis were determined using one of the following scores: […]
The histopathological examinations provided individual scores which were analyzed, then reported for each batch. Three parameters were distinctly determined: […]
2. The intensity of the atheromatous damages found, determined by the previously-given scores.
3. The number of the observed atheromatous damage calculated on the basis of a batch of 15 animals each.

[6] = system: atheromatous deposits of the aorta, Wistar rats; test: Macroscopic examination of aorta atheroma in rats on atheromatogenous diet; format: in vivo, rat; conditions: 100 mg/kg
Excerpt: as §3, §4
After the studies, all the animals were sacrificed by subtotal puncture of the blood in the abdominal aorta after anesthesia by intravenous sodium Pentobarbital. The hearts, livers, aortas on which the score of atheroma was determined were taken. For this purpose, the aortas were longitudinally cut, then spread to allow a whole insight of the endothelial coating from the aortic valves until the branching of the coeliac stem (lower portion of the thoracic aorta).
Aorta was from an anatomic point of view divided into two parts:
Zone 1: aortic valves-first intercostal arters
Zone 2: first intercostal arters and branching of the coeliac stem
The intensity of the atheromatous deposits was determined according to the following scores:
Score 1: Discrete (<1 mm) and few deposit
Score 2: Numerous and discrete deposits
Score 3: Numerous and marked deposits (<1 mm)
Score 4: Very marked deposits or very numerous deposits but letting some uninfiltrated areas
Score 5: Deposits on the whole epithelium
Two parameters were considered:
the intensity of the observed damages determined according to the previously-given scores.

[7] = Acute toxicity after single oral administration; format: in vivo; conditions: mouse, in vivo, po
Excerpt: (§5) Male and female mice of Swiss strain weighing from 22 to 25 g of body weight were free of pathogen specific organisms (EOPS), stemming from breeding CERJ (53860 LE GENEST (France) and acclimated for at least 8 days in the animalry of the firm.
(§6) Except where stipulated to the contrary, in the tables giving the results, 10 animals of the same sex for each dose were housed in cages of MAKROLON (Safi) of 40 cm by 25 cm filled with shaving of wood. Standard feeding for rats and mice, tablets UAR and tap water ad libitum.
(§7) The compounds were administered without previous fasting either orally (gastric tubing using a metallic oesophageous sonde) at a rate of 0.5 ml or 1 ml per 20 g of body weight of an aqueous suspension of the test compound in a 3% solution of arabic gum, or intraperitoneally at a rate of 0.5 ml or 1 ml per 20 g of body weight of the test compound suspended in an isotonic saline solution containing 3% of arabic gum.
(§8) For 6 days after the single administration and then every day for 15 days.
(§9) When necessary, the mean lethal doses (LD 50) were calculated by the method of Behrens and Karber (BK) and Miller and Tainter (MT). The latter allowing to supply with, for the threshold of probability P=0.05 a limit of confidence for the LD 50. Further calculated were the LDo i.e. DMT=maximal doses always tolerated and the LD100 i.e. DMM=minimal doses always lethal.
The compound was administered in a single dose to batches of 10 male or female mice weighing […] at a rate of 1 ml per 20 g of body weight.

[8] = Acute toxicity after single intraperitoneal administration; format: in vivo; conditions: mouse, in vivo, ip, calculated LD 50 (about)
Excerpt: as §5, §6, §7, §8, §9

[9] = Maximal tolerated dose on chronic administration in the rat; conditions: in vivo

## CC(C)OC(=O)C(C)(C)Oc1ccc(C(=O)c2ccc(Cl)cc2)cc1 [Procetofene, reference compound]
[1]; 6 hours after TRITON WR 1339
  Dose dependence of hypolipaemiant activity: directly proportional to the doses
[1]; 24 hours after TRITON WR 1339
  Dose dependence of hypolipaemiant activity: inversely proportional to the dose
[1]; 6 hours after, 250 mg/kg oral
  Cholesterol HDL/LDL score vs 250 mg/kg Procetofene: 1.00
  Total Score vs 250 mg/kg Procetofene: 4.00
  Total cholesterol score vs 250 mg/kg Procetofene: 1.00
  Total lipids score vs 250 mg/kg Procetofene: 1.00
  Triglycerids score vs 250 mg/kg Procetofene: 1.00
[1]; 6 hours after, 500 mg/kg oral
  Cholesterol HDL/LDL score vs 250 mg/kg Procetofene: 1.53
  Total Score vs 250 mg/kg Procetofene: 5.12
  Total cholesterol score vs 250 mg/kg Procetofene: 1.65
  Total lipids score vs 250 mg/kg Procetofene: 0.65
  Triglycerids score vs 250 mg/kg Procetofene: 1.29
[1]; 24 hours after, 250 mg/kg oral
  Cholesterol HDL/LDL score vs 250 mg/kg Procetofene: 1.00
  Total Score vs 250 mg/kg Procetofene: 4.00
  Total cholesterol score vs 250 mg/kg Procetofene: 1.00
  Total lipids score vs 250 mg/kg Procetofene: 1.00
  Triglycerids score vs 250 mg/kg Procetofene: 1.00
[1]; 24 hours after, 500 mg/kg oral
  Cholesterol HDL/LDL score vs 250 mg/kg Procetofene: 0.30
  Total Score vs 250 mg/kg Procetofene: 3.33
  Total lipids score vs 250 mg/kg Procetofene: 0.85
  Triglycerids score vs 250 mg/kg Procetofene: 1.01
[1]; same doses (250 and 500 mg/kg)
  Antihyperlipaemiant activity, compound vs Procetofene: antihyperlipaemiant activity about equal

## CC(C)OC(=O)C(C)(C)Oc1ccc(C(=O)c2ccc(Cl)cc2)cc1 [Fenclofibrate]
[2]; 100 mg/kg, 4 weeks, atheromatogenous regimen (batch No. 2: 2/15)
  Mortality: 3/15
[3]
  Atheromatous risk total score: 0.23
  Cholesterol in LDL / Cholesterol in HDL, % in comparison with Controls-Diet: -12.35%
  Cholesterol in LDL / Cholesterol in HDL, score in comparison with Clofibrate: 0.16
  Total Blood Cholesterol / Cholesterol in HDL, % in comparison with Controls-Diet: -5.06%
  Total Blood Cholesterol / Cholesterol in HDL, score in comparison with Clofibrate (=1): 0.07
[3]; 4 weeks
  Cholesterol in HDL score (Clofibrate=1): 0.04
  Cholesterol in HDL, variation in comparison to controls-Diet: +4.17%
  Cholesterol in LDL score (Clofibrate=1): 0.16
  Esterified cholesterol score (Clofibrate=1): 0.40
  Esterified cholesterol, variation in comparison to controls-Diet: -22.08%
  Total Blood lipids score (Clofibrate=1): 0.29
  Total Blood lipids, variation in comparison to controls-Diet: -10.31%
  Total blood cholesterol score (Clofibrate=1): 0.02
  Total blood cholesterol, variation in comparison to controls-Diet: -1.09%
  Triglycerids, variation in comparison to controls-Diet: -25.86%
  Cholesterol in LDL, variation in comparison to controls-Diet: -8.69%
[3]; sum of individual scores, Clofibrate=1 each
  Biochemistry total score: 1.98
[4]
  Classification of the anti-atheromatous action: Compound of the invention>Fenofibrate>Clofibrate
  Total Score (biochemistry, atheromatous risk, macroscopical, histological): 6.51
[5]
  Histological examination score: 2.13
[6]
  Macroscopical examination total score: 2.17
[6]; macroscopical
  Damaged animals, % of decrease in comparison with Controls-Diet: -16.67%
  Damaged animals, percentage: 83.33%
  Damaged animals, score in relation to Clofibrate: 0.92
  Intensity of the damages, % of decrease in comparison with Controls-Diet: -31.97%
  Intensity of the damages, score in relation to Clofibrate: 1.25
[6]; macroscopical, scores 0 to 5
  Intensity of the damages, quotation: 1.83

## CCOC(=O)C(C)(C)Oc1ccc(Cl)cc1 [Clofibrate]
[2]; rat, in vivo
  Mortality: 4/15
[7]
  LD50: 2500 mg/kg
[3]
  Cholesterol in LDL / Cholesterol in HDL ratio (risk of atheroma): 5.35
  Cholesterol in LDL / Cholesterol in HDL, % in comparison with Controls-Diet: -78.13%
  Total Blood Cholesterol / Cholesterol in HDL ratio (risk of atheroma): 6.69
  Total Blood Cholesterol / Cholesterol in HDL, % in comparison with Controls-Diet: -74.91%
[3]; 4 weeks
  Cholesterol in HDL, variation in comparison to controls-Diet: +104.17%
  Esterified cholesterol, variation in comparison to controls-Diet: -55.00%
  Total Blood lipids, variation in comparison to controls-Diet: -35.43%
  Total blood cholesterol, variation in comparison to controls-Diet: -48.75%
  Triglycerids, variation in comparison to controls-Diet: -24.14%
  Cholesterol in LDL, variation in comparison to controls-Diet: -55.37%
[4]
  Classification of the anti-atheromatous action: Compound of the invention>Fenofibrate>Clofibrate
[8]
  LD50: ~1800 mg/kg
[5]
  Histological examination score: 2.00
[6]
  Macroscopical examination total score: 2.00
[6]; macroscopical
  Damaged animals, % of decrease in comparison with Controls-Diet: -18.18%
  Damaged animals, percentage: 81.82%
  Damaged animals, score in relation to Clofibrate: 1.00
  Intensity of the damages, % of decrease in comparison with Controls-Diet: -25.65%
  Intensity of the damages, score in relation to Clofibrate: 1.00
[9]
  MTD: ~100 mg/kg
